Assay results published in patent US5703089A, “Dihydrodibenzisoquinolinediones” (Knoll Aktiengesellschaft, priority 1996, dated 1997).
pIC50: −log10 of the molar value. Where “and” joins values, the source holds several entries; their conditions need not be identical. Equal values may be shown once. Where a name gives a salt, the structure may show the parent alone.

Legend:
[1] = test system: HT-29 colon carcinoma cells; assay: Inhibition of HT-29 tumor cell proliferation (MTT cytotoxicity, 72 h); format: cell-based; details: HT-29, 72 h
Experimental: Cytotoxicity may be measured using standard methodology for adherent cell lines such as the microculture tetrazolium assay (MTT). Details of this assay have been published Cancer Research 48:589-601, 1988). Exponentially growing cultures of tumor cells such as the HT-29 colon carcinoma or LX-1 lung tumor are used to make microtiter plate cultures. Cells are seeded at 5000-20,000 cells per well in 96-well plates (in 150 μl of media), and grown overnight at 37° C. Test compounds are added, in dilutions varying from 10^-4 M to 10^-10 M. The cells are then incubated for 48-72 hours. To determine the number of viable cells in each well, the MTT dye is added (50 μl of 3 mg/ml solution of 3-(4,5-dimethylthiazol-2-yl)-2,5-diphenyltetrazolium bromide in saline). This mixture is incubated at 37° C. for 5 hours, and then 50 μl of 25% strength SDS (pH 2) is added to each well. After overnight incubation, the absorbance of each well at 550 nm is read using an ELISA reader. The values for the mean +/- SD of data from quadruplicate wells are calculated, using the formula % T/C (% cells treated/control). [formula]
The concentration of test compound which gives a T/C of 50% growth inhibition is designated as the IC50.
Inhibition of HT-29 tumor cell proliferation^a.
^a Dihydrodibenzoquinolinedione cytotoxicity studies were performed a
follows: HT29 cells were seeded (5000) into each well of 96 well dishes.
After plating overmight a titration of dihydrodibenzoquinolinedione was
added giving a final volume of 200 ul. Following incubation for 72 h 50 u
of MTT (3 mg/ml) in PBS was added to each well and incubated for 5 hours
at 37° C. The reaction was stopped by the addition of 50 ul of 25%
SDS, pH 2. After an overnight incubation at 37° C. the absorbance,
due to metabolized MTT, was read with a plate reader at 550 nm.
Cytotoxicity was calculate as the well absorbance expressed as a
percentage on nondrug treated control. All estimates were made in
^b 10^-2 M stock solution made in 10% acetic acid then diluted in
^c 10^-2 M stock solution made in 10% DMSO then diluted in media.
^d 10^-4 M stock solution made in 10% acetic acid/10% DMSO then
^e 10^-2 M stock suspention made in DMSO then diluted in media to […]

[2] = test system: M5076 murine sarcoma; assay: In vivo anti-tumor activity on M5076 murine sarcoma (survival); design: species or system C57BL/6 mice; details: for % T/C: treated MST/control MST; for MST: treated on days 1.5 and 9
Experimental: Compounds according to the invention may be further tested in any of the various preclinical assays for in vivo activity which are indicative of clinical utility. Such assays may be conducted with human tumors implanted in nude mice as xenografts or mouse tumors implanted in conventional mice in the strain of origin (syngeneic), as is well known in this field. Test compounds are evaluated for their antitumor efficacy following administration to the tumor-bearing mice.
More specifically, human tumors which have been grown in athymic nude mice or mouse tumors grown in their synergeneic host are transplanted into new recipient animals, using either tumor fragments which are about 50 mg in size or 1×10^6 cells harvested from ascites fluid. The day of transplantation is designated as day 0 and the host mice are subsequently injected intravenously or intraperitoneally with the test compounds, in group of 5 to 10 mice per dose level. The compounds are administered either as a single dose or on an intermittent or frequent dosing schedule at doses from 0.1 to 100 mg/kg body weight. Tumor size of solid tumors are measured by vernier calipers in two directions and the volume estimated by the formula: […]
Life span studies following i.p. administration of tumor cells are evaluated on the base of median survival time (MST). The MST of drug treated (T) mice are compared to the MST of control (C) mice and expressed as T/C percent. Compounds producing a T/C percent of >100% indicates some reduction in tumor burden. Values of 125 to 150% may be considered to reflect moderate activity, values of 150 to 200% good to excellent activity, and >200% outstanding activity.
In vivo anti-tumor activity of a Dihydrodibenzoquinolinedione analog on M5076 murine sarcoma^a.
^a C57BL/6 mice (6 per group) were inoculated with 10^6 M5076
cells on day 0. Mice were treated on days 1.5 and 9 with the
dimethanesulfonate salt of example 1 at the dose levels shown. Mice died
as a consequence of tumor burden with median survival times (MST) as
shown. In both studies meaningful antitumor activity was produce as
indicated by a treated MST/Control MST percentage (% T/C) being

[3] = 10^-2 M stock solution made in 10% DMSO then diluted in media
[4] = Homo sapiens, 10^-2 M stock solution made in 10% DMSO then diluted in media
[5] = 10^-2 M stock solution made in 10% acetic acid then diluted in media
[6] = Homo sapiens, 10^-2 M stock solution made in 10% acetic acid then diluted in media
[7] = 10^-2 M stock suspension made in DMSO then diluted in media to form a solution
[8] = Homo sapiens, 10^-4 M stock solution made in 10% acetic acid/10% DMSO then diluted in media

## CN(CCN(C)CCN1C(=O)c2cccc3cc4ccccc4c(c23)C1=O)CCN1C(=O)c2cccc3cc4ccccc4c(c23)C1=O [Example 14, N,N'-Bis[2-(1,2-dihydro-1,3-dioxo-3H-dibenz[de,h]isoquinolin-2-yl)ethyl]-N,N'-dimethyl-1,2-ethylenediamine]
[1]; [3]
  pIC50: 7.10
[1]; [4]
  pIC50: 7.15

## O=C1c2cccc3cc4ccccc4c(c23)C(=O)N1CCCNCCCNCCCN1C(=O)c2cccc3cc4ccccc4c(c23)C1=O [Example 11, N,N'-Bis[3-(1,2-dihydro-1,3-dioxo-3H-dibenz[de,h]isoquinolin-2-yl)propyl]-1,3-propanediamine]
[1]; [5]
  pIC50: 7.10
[1]; [6]
  pIC50: 7.00

## O=C1c2cccc3cc4c([N+](=O)[O-])cccc4c(c23)C(=O)N1CCNCCCNCCN1C(=O)c2cccc3cc4c([N+](=O)[O-])cccc4c(c23)C1=O [Example 12, N,N'-Bis[2-(1,2-dihydro-8-nitro-1,3-dioxo-3H-dibenz[de,h]isoquinolin-2-yl)ethyl]-1,3-propanediamine]
[1]; [7]
  pIC50: 7.40
[1]; Homo sapiens, 10^-2 M stock suspension made in DMSO then diluted in media to form a solution
  pIC50: 7.52

## O=C1c2cccc3cc4ccccc4c(c23)C(=O)N1CCNCCN1C(=O)c2cccc3cc4ccccc4c(c23)C1=O [Example 9, Bis[2-(1,2-dihydro-1,3-dioxo-3H-dibenz[de,h]isoquinolin-2-yl)ethyl)amine]
[1]; [8]
  pIC50: 7.70

## O=C1c2cccc3cc4ccccc4c(c23)C(=O)N1CCNCCCNCCN1C(=O)c2cccc3cc4ccccc4c(c23)C1=O [Example 1, N,N'-Bis[2-(1,2-dihydro-1,3-dioxo-3H-dibenz[de,h]isoquinoline-2-yl)ethyl]-1,3-propanediamine]
[1]; [5]
  pIC50: 8.30
[1]; [6]
  pIC50: 8.40

## O=C1c2cccc3cc4ccccc4c(c23)C(=O)N1CCNCCCNCCN1C(=O)c2cccc3cc4ccccc4c(c23)C1=O [1 2 CH3 --SO3 H salt]
[2]; Experiment 1, 1.8 mg/kg
  % T/C: 154%
[2]; Experiment 1, 1.8 mg/kg, control MST 19.5
  MST: 30
[2]; Experiment 1, 2.6 mg/kg
  % T/C: 123%
[2]; Experiment 1, 2.6 mg/kg, control MST 19.5
  MST: 24
[2]; Experiment 1, 4 mg/kg
  % T/C: toxic
[2]; Experiment 1, 4 mg/kg, control MST 19.5
  MST: toxic
[2]; Experiment 2, 1.2 mg/kg
  % T/C: 128%
[2]; Experiment 2, 1.2 mg/kg, control MST 23.5
  MST: 30
[2]; Experiment 2, 1.8 mg/kg
  % T/C: 98%
[2]; Experiment 2, 1.8 mg/kg, control MST 23.5
  MST: 23
[2]; Experiment 2, 2.7 mg/kg
  % T/C: toxic
[2]; Experiment 2, 2.7 mg/kg, control MST 23.5
  MST: toxic
[2]; both studies, reproducibly, meaningful antitumor activity
  treated MST/Control MST percentage (% T/C): greater than 125%
[1]; [3]
  pIC50: 7.70
[1]; [4]
  pIC50: 8.00

## O=C1c2cccc3cc4ccccc4c(c23)C(=O)N1CCCNCCCCNCCCN1C(=O)c2cccc3cc4ccccc4c(c23)C1=O [Example 3, N,N'-Bis[3-(1,2-dihydro-1,3-dioxo-3H-dibenz[de,h]isoquinolin-2-yl)propyl]-1,4-butanediamine]
[1]; [6]
  pIC50: 6.70

## O=C1c2cccc3cc4ccccc4c(c23)C(=O)N1CCNCCNCCN1C(=O)c2cccc3cc4ccccc4c(c23)C1=O [Example 2, N,N'-Bis[2-(1,2-dihydro-1,3-dioxo-3H-dibenz[de,h]isoquinolin-2-yl)ethyl]-1,2-ethylenediamine]
[1]; [5]
  pIC50: 8.10
[1]; [6]
  pIC50: 8.00

## O=C1c2cccc3cc4ccccc4c(c23)C(=O)N1CCCNCCNCCCN1C(=O)c2cccc3cc4ccccc4c(c23)C1=O [Example 10, N,N'-Bis[3-(1,2-dihydro-1,3-dioxo-3H-dibenz[de,h]isoquinolin-2-yl)propyl]-1,2-ethylenediamine]
[1]; [5]
  pIC50: 7.05
[1]; [6]
  pIC50: 7.00

## O=C1c2cccc3cc4ccccc4c(c23)C(=O)N1CCCNCCCN1C(=O)c2cccc3cc4ccccc4c(c23)C1=O [Example 7, Bis[3-(1,2-dihydro-1,3-dioxo-3H-dibenz[de,h]isoquinolin-2-yl)propyl]amine]
[1]; [6]
  pIC50: 7.70

## O=C1c2cccc3cc4ccccc4c(c23)C(=O)N1CCNCCCCCNCCN1C(=O)c2cccc3cc4ccccc4c(c23)C1=O [Example 15, N,N'-Bis[2-(1,2-dihydro-1,3-dioxo-3H-dibenz[de,h]isoquinolin-2-yl)ethyl]-1,5-pentanediamine]
[1]; [4]
  pIC50: 8.10

## O=C1c2cccc3cc4c([N+](=O)[O-])cccc4c(c23)C(=O)N1CCNCCNCCN1C(=O)c2cccc3cc4c([N+](=O)[O-])cccc4c(c23)C1=O [Example 13, N,N'-Bis-[2-(1,2-dihydro-8-nitro-1,3-dioxo-3H-dibenz[de,h]isoquinolin-2-yl)ethyl]1,3-ethylenediamine]
[1]; [7]
  pIC50: 7.00 and 7.05

## O=C1c2cccc3cc4ccccc4c(c23)C(=O)N1CCCCNCCCN1C(=O)c2cccc3cc4ccccc4c(c23)C1=O [Example 4, [3-(1,2-dihydro-1,3-dioxo-3H-dibenz[de,h]isoquinolin-2-yl)propyl][4-(1,2-dihydro-1,3-dioxo-3,4-dibenz[de,h]isoquinolin-2-yl)butyl]amine]
[1]; 10^-4 M stock solution made in 10% acetic acid/10% DMSO then diluted in media
  pIC50: 7.30
[1]; [8]
  pIC50: 7.05
